Assay: Inhibition of Cobetia marina ALP using pNPP as substrate; call rule not given here

Compound	IC50	IC50 (read-out: IC50) [µM]
O=C(O)CCCc1nccc2[nH]ccc12	Not Active	–
O=C(O)c1cc2[nH]ccc2c(CO)n1	–	2
OCc1nccc2[nH]ccc12	Not Active	–
O=C(O)c1nccc2[nH]ccc12	Not Active	–
O=C(O)c1nc(CO)c2cc[nH]c2c1O	–	100
